In brackets after ≈: the same amount, converted by molar mass. Activity calls are given as the source filed them. No cut-off for these calls is given here.
Experiments:
[1] = test system: Staphylococcus aureus; assay: Bactericidal activity against methicillin resistant Staphylococcus aureus ATCC33591 assessed as inhibition of bacterial growth incubated for 24 hrs by resazurin dye based analysis; type: functional
[2] = test system: Ralstonia solanacearum; assay: Antibacterial activity against Ralstonia solanacearum assessed as inhibition of bacterial growth incubated for 24 hrs by broth microdilution method; type: functional
[3] = test system: Enterococcus faecium; assay: Antibacterial activity against vancomycin-resistant Enterococcus faecium ATCC 700221 assessed as inhibition of bacterial growth incubated for 24 hrs by broth microdilution method; type: functional
[4] = test system: Escherichia coli; assay: Antibacterial activity against Escherichia coli ATCC25922 assessed as inhibition of bacterial growth incubated for 24 hrs by broth microdilution method; type: functional
[5] = test system: Staphylococcus aureus; assay: Antibacterial activity against methicillin resistant Staphylococcus aureus ATCC33591 assessed as inhibition of bacterial growth incubated for 24 hrs by broth microdilution method; type: functional
[6] = test system: Staphylococcus aureus; assay: Bactericidal activity against Staphylococcus aureus ATCC25923 assessed as inhibition of bacterial growth incubated for 24 hrs by resazurin dye based analysis; type: functional
[7] = test system: Staphylococcus aureus; assay: Ratio of MBC to MIC for Staphylococcus aureus ATCC25923; type: functional
[8] = (§1) Antibacterial activity against Pseudomonas syringae pv. actinidiae assessed as inhibition of bacterial growth incubated for 24 hrs by broth microdilution method; type: functional
[9] = test system: Staphylococcus aureus; assay: Antibacterial activity against Staphylococcus aureus ATCC25923 assessed as inhibition of bacterial growth incubated for 24 hrs by broth microdilution method; type: functional
[10] = test system: Staphylococcus aureus; assay: Drug resistance, ratio of MIC for methicillin-resistant Staphylococcus aureus ATCC33591 after 18 passages to MIC for methicillin-resistant Staphylococcus aureus ATCC33591 after initial exposure; type: functional
[11] = test system: Staphylococcus aureus; assay: Antibacterial activity against methicillin resistant Staphylococcus aureus ATCC33591 assessed as inhibition of bacterial growth at 1 times MIC incubated for 24 hrs by time kill assay; type: functional, organism-based
[12] = test system: Staphylococcus aureus; assay: Antibacterial activity against methicillin resistant Staphylococcus aureus ATCC33591 assessed as post antibiotic effect at 16 ug/ml measured after 2 hrs; type: functional; settings: dose 16 µg/ml
[13] = Cytotoxicity against human HepG2 cells assessed as cell viability at 32 to 64 ug/ml measured after 24 hrs by MTT assay; type: toxicity, cell-based; settings: at 32 to 64 µg/mL, dose 32-64 µg/ml, read-out: Activity
[14] = Cytotoxicity against human L02 cells assessed as cell viability at 32 to 64 ug/ml measured after 24 hrs by MTT assay; type: toxicity, cell-based; settings: at 32 to 64 µg/mL, dose 32-64 µg/ml, read-out: Activity
[15] = test system: Staphylococcus aureus; assay: Antibacterial activity against methicillin resistant Staphylococcus aureus ATCC33591 assessed as post antibiotic effect at 8 ug/ml measured after 2 hrs; type: functional; settings: dose 8 µg/ml
[16] = test system: Staphylococcus aureus; assay: Antibacterial activity against methicillin resistant Staphylococcus aureus ATCC33591 assessed as eradication of viable bacteria at >8 times MIC measured after 24 hrs by time kill assay; type: functional, organism-based
[17] = test system: Staphylococcus aureus; assay: Antibacterial activity against methicillin resistant Staphylococcus aureus ATCC33591 infected in mouse model of abdominal infection assessed as reduction in mean bacterial load in blood at 2 mg/kg, ip treated for 24 hrs starting from 2 hrs post infection; type: functional, organism-based
[18] = test system: Staphylococcus aureus; assay: Antibacterial activity against methicillin resistant Staphylococcus aureus ATCC33591 assessed as post antibiotic effect at 2 ug/ml measured after 2 hrs; type: functional; settings: dose 2 µg/ml
[19] = test system: Staphylococcus aureus; assay: Antibacterial activity against methicillin resistant Staphylococcus aureus ATCC33591 assessed as post antibiotic effect at 1 ug/ml measured after 2 hrs; type: functional; settings: dose 1 µg/ml
[20] = test system: Pseudomonas syringae pv. actinidiae; assay: as §1; type: functional
[21] = test system: Staphylococcus aureus; assay: Antibacterial activity against methicillin resistant Staphylococcus aureus ATCC33591 infected in mouse model of abdominal infection assessed as reduction in mean bacterial load in blood at 10 mg/kg, ip treated for 24 hrs starting from 2 hrs post infection relative to control; type: functional; set-up: scale not given: the % may be the effect or the level left
[22] = test system: Staphylococcus aureus; assay: Antibacterial activity against methicillin resistant Staphylococcus aureus ATCC33591 assessed as reduction in viable bacterial count at 2 times MIC measured within 24 hrs by time kill assay relative to control; type: functional
[23] = test system: Staphylococcus aureus; assay: Antibacterial activity against methicillin resistant Staphylococcus aureus ATCC33591 assessed as eradication of viable bacteria at >=4 times MIC measured within 24 hrs by time kill assay relative to control; type: functional
[24] = test system: Staphylococcus aureus; assay: Antibacterial activity against methicillin resistant Staphylococcus aureus ATCC33591 infected in mouse model of abdominal infection assessed as reduction in mean bacterial load in blood at 5 mg/kg, ip treated for 24 hrs starting from 2 hrs post infection relative to control; type: functional; set-up: scale not given: the % may be the effect or the level left
[25] = test system: Staphylococcus aureus; assay: Drug resistance, ratio of MIC for methicillin-resistant Staphylococcus aureus ATCC33591 after 19 passages to MIC for methicillin-resistant Staphylococcus aureus ATCC33591 after initial exposure; type: functional
[26] = test system: Staphylococcus aureus; assay: Drug resistance, ratio of MIC for methicillin-resistant Staphylococcus aureus ATCC33591 after 16 passages to MIC for methicillin-resistant Staphylococcus aureus ATCC33591 after initial exposure; type: functional

| Compound | MBC [1] [µg/mL] | MIC [2] [µg/mL] | MIC [3] [µg/mL] | MIC [4] [µg/mL] | MIC [5] [µg/mL] | MIC [8] [µg/mL] | MIC [9] [µg/mL] | further results |
| --- | --- | --- | --- | --- | --- | --- | --- | --- |
| O=C(Nc1ccc(C2NCCc3c2[nH]c2ccccc32)cc1)c1ccc(Cl)cc1 (centres undefined) | 16 (≈ 39.8 µM) | 8 (≈ 19.9 µM) | > 128 | 16 (≈ 39.8 µM) | 8 (≈ 19.9 µM) | 128 (≈ 318 µM) | 4 (≈ 9.95 µM) | MBC [6]: 32 µg/mL (≈ 79.6 µM); Ratio [7]: 1 |
| O=C(Nc1ccc(C2NCCc3c2[nH]c2ccccc32)cc1)c1ccc(F)cc1 (centres undefined) | 8 (≈ 20.8 µM) | 4 (≈ 10.4 µM) | > 128 | 16 (≈ 41.5 µM) | 4 (≈ 10.4 µM) | 64 (≈ 166 µM) | 4 (≈ 10.4 µM) | Ratio [10]: <4; Activity [11]: Active; PAE [12]: 1.28 h; viability at 24 h [13]: > 95%; viability at 24 h [14]: > 95%; MBC [6]: 8 µg/mL (≈ 20.8 µM); Ratio [7]: 1; PAE [15]: 0.95 h; Activity [16]: Active |
| O=C(O)c1cn(C2CC2)c2cc(N3CCNCC3)c(F)cc2c1=O [CIPROFLOXACIN] | 2 (≈ 6.04 µM) | 0.25 (≈ 0.754 µM) | > 128 | – | 0.5 (≈ 1.51 µM) | 0.5 (≈ 1.51 µM) | 0.5 (≈ 1.51 µM) | Activity [17]: Active; PAE [18]: 1.79 h; PAE [19]: 1.18 h |
| O=C(Nc1ccc(C2NCCc3c2[nH]c2ccccc32)cc1)c1ccc(F)c(C(F)(F)F)c1 (centres undefined) | – | 16 (≈ 35.3 µM) | > 128 | 8 (≈ 17.6 µM) | 8 (≈ 17.6 µM) | 32 (≈ 70.6 µM) | 4 (≈ 8.82 µM) | – |
| GENTAMICIN | > 128 | 16 | > 128 | 4 | > 128 | – | 4 | MBC [6]: 8 µg/mL; MIC [20]: 8 µg/mL |
| O=C(Nc1ccc(C2NCCc3c2[nH]c2ccccc32)cc1)c1cccc(C(F)(F)F)c1 (centres undefined) | – | 16 (≈ 36.7 µM) | 128 (≈ 294 µM) | 8 (≈ 18.4 µM) | 4 (≈ 9.19 µM) | 32 (≈ 73.5 µM) | 8 (≈ 18.4 µM) | – |
| O=C(Nc1ccc(C2NCCc3c2[nH]c2ccccc32)cc1)c1ccc(C(F)(F)F)cc1 (centres undefined) | 4 (≈ 9.19 µM) | 4 (≈ 9.19 µM) | 64 (≈ 147 µM) | 4 (≈ 9.19 µM) | 4 (≈ 9.19 µM) | 16 (≈ 36.7 µM) | 4 (≈ 9.19 µM) | Activity [21]: 26%; Ratio [10]: <4; Activity [11]: Active; PAE [12]: 2.63 h; viability at 24 h [13]: > 95%; Activity [22]: 87.7%; Activity [23]: 94.3%; Activity [24]: 9.8%; viability at 24 h [14]: > 95%; MBC [6]: 4 µg/mL (≈ 9.19 µM); Ratio [7]: 1; PAE [15]: 1.78 h; Activity [16]: Active |
| CN1CCc2c([nH]c3ccccc23)C1c1ccc(NC(=O)c2cccc(F)c2)cc1 (centres undefined) | – | 16 (≈ 40.1 µM) | > 128 | 16 (≈ 40.1 µM) | 4 (≈ 10 µM) | 16 (≈ 40.1 µM) | 32 (≈ 80.1 µM) | – |
| COC(=O)c1ccc(C(=O)Nc2ccc(C3NCCc4c3[nH]c3ccccc43)cc2)cc1 (centres undefined) | – | 16 (≈ 37.6 µM) | > 128 | 16 (≈ 37.6 µM) | 32 (≈ 75.2 µM) | 16 (≈ 37.6 µM) | 16 (≈ 37.6 µM) | – |
| COC(=O)c1ccc(C(=O)Nc2ccc(C3c4[nH]c5ccccc5c4CCN3C)cc2)cc1 (centres undefined) | – | 128 (≈ 291 µM) | > 128 | 128 (≈ 291 µM) | 32 (≈ 72.8 µM) | 32 (≈ 72.8 µM) | 64 (≈ 146 µM) | – |
| O=C(Nc1ccc(C2NCCc3c2[nH]c2ccccc32)cc1)c1cc(C(F)(F)F)cc(C(F)(F)F)c1 (centres undefined) | – | 128 (≈ 254 µM) | > 128 | 128 (≈ 254 µM) | 16 (≈ 31.8 µM) | 64 (≈ 127 µM) | 16 (≈ 31.8 µM) | – |
| O=C(Nc1ccc(C2NCCc3c2[nH]c2ccccc32)cc1)c1cccc([N+](=O)[O-])c1 (centres undefined) | – | 16 (≈ 38.8 µM) | > 128 | 16 (≈ 38.8 µM) | 16 (≈ 38.8 µM) | 32 (≈ 77.6 µM) | 8 (≈ 19.4 µM) | – |
| O=C(Nc1ccc(C2NCCc3c2[nH]c2ccccc32)cc1)c1ccccc1F (centres undefined) | – | 128 (≈ 332 µM) | > 128 | 64 (≈ 166 µM) | 32 (≈ 83 µM) | 64 (≈ 166 µM) | 32 (≈ 83 µM) | – |
| CO[C@H]1/C=C/O[C@@]2(C)Oc3c(C)c(O)c4c(O)c(c(/C=N/N5CCN(C)CC5)c(O)c4c3C2=O)NC(=O)/C(C)=C\C=C\[C@H](C)[C@H](O)[C@@H](C)[C@@H](O)[C@@H](C)[C@H](OC(C)=O)[C@@H]1C [RIFAMPIN] | 1 (≈ 1.22 µM) | – | – | – | 0.25 (≈ 0.304 µM) | – | 0.25 (≈ 0.304 µM) | Ratio [25]: 1024; MBC [6]: 2 µg/mL (≈ 2.43 µM); Ratio [26]: 256 |
| CN1CCc2c([nH]c3ccccc23)C1c1ccc(NC(=O)c2ccc(Cl)cc2)cc1 (centres undefined) | – | 32 (≈ 76.9 µM) | > 128 | 32 (≈ 76.9 µM) | 16 (≈ 38.5 µM) | 64 (≈ 154 µM) | 8 (≈ 19.2 µM) | – |
| CN1CCc2c([nH]c3ccccc23)C1c1ccc(NC(=O)c2ccccc2F)cc1 (centres undefined) | – | 128 (≈ 320 µM) | > 128 | 64 (≈ 160 µM) | 32 (≈ 80.1 µM) | 32 (≈ 80.1 µM) | 64 (≈ 160 µM) | – |
| CN1CCc2c([nH]c3ccccc23)C1c1ccc(NC(=O)c2cccc(Cl)c2)cc1 (centres undefined) | – | 16 (≈ 38.5 µM) | > 128 | 16 (≈ 38.5 µM) | 8 (≈ 19.2 µM) | 64 (≈ 154 µM) | 16 (≈ 38.5 µM) | – |

Source: ChEMBL document CHEMBL5576067, “Synthesis and biological evaluation of novel 1,2,3,4-tetrahydro-β-carboline derivatives as potential antibacterial agents” (Bioorg Med Chem Lett, 2024)
